Where two headings read alike, the source gives them in different places.
Legend:
Assay in all cases: Kinase selectivity, scanMAX Kinase assay panel (DiscoverX), % control at 1 uM
Type in all cases: binding
[1] = target: T1, scanMAX Kinase assay panel (Homo sapiens, UniProt P19784); conditions: CSNK2A2; 1 uM; read-out: Percent Control (%)
T1 construct: purchased DiscoverX
In short: (§1)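 1 uM cpd (DMSO) per kinase; % ctrl = [cpd − pos ctrl]/[neg ctrl − pos ctrl] × 100; hit if <35.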

[2] = target: T2, scanMAX Kinase assay panel (Homo sapiens, UniProt P06239); conditions: LCK; 1 uM; read-out: Percent Control (%)
T2 construct: purchased DiscoverX
In short: as §1

[3] = target: T3, scanMAX Kinase assay panel (Homo sapiens, UniProt P08922); conditions: ROS1; 1 uM; read-out: Percent Control (%)
T3 construct: purchased DiscoverX
T3 sequence (P08922 28-2347): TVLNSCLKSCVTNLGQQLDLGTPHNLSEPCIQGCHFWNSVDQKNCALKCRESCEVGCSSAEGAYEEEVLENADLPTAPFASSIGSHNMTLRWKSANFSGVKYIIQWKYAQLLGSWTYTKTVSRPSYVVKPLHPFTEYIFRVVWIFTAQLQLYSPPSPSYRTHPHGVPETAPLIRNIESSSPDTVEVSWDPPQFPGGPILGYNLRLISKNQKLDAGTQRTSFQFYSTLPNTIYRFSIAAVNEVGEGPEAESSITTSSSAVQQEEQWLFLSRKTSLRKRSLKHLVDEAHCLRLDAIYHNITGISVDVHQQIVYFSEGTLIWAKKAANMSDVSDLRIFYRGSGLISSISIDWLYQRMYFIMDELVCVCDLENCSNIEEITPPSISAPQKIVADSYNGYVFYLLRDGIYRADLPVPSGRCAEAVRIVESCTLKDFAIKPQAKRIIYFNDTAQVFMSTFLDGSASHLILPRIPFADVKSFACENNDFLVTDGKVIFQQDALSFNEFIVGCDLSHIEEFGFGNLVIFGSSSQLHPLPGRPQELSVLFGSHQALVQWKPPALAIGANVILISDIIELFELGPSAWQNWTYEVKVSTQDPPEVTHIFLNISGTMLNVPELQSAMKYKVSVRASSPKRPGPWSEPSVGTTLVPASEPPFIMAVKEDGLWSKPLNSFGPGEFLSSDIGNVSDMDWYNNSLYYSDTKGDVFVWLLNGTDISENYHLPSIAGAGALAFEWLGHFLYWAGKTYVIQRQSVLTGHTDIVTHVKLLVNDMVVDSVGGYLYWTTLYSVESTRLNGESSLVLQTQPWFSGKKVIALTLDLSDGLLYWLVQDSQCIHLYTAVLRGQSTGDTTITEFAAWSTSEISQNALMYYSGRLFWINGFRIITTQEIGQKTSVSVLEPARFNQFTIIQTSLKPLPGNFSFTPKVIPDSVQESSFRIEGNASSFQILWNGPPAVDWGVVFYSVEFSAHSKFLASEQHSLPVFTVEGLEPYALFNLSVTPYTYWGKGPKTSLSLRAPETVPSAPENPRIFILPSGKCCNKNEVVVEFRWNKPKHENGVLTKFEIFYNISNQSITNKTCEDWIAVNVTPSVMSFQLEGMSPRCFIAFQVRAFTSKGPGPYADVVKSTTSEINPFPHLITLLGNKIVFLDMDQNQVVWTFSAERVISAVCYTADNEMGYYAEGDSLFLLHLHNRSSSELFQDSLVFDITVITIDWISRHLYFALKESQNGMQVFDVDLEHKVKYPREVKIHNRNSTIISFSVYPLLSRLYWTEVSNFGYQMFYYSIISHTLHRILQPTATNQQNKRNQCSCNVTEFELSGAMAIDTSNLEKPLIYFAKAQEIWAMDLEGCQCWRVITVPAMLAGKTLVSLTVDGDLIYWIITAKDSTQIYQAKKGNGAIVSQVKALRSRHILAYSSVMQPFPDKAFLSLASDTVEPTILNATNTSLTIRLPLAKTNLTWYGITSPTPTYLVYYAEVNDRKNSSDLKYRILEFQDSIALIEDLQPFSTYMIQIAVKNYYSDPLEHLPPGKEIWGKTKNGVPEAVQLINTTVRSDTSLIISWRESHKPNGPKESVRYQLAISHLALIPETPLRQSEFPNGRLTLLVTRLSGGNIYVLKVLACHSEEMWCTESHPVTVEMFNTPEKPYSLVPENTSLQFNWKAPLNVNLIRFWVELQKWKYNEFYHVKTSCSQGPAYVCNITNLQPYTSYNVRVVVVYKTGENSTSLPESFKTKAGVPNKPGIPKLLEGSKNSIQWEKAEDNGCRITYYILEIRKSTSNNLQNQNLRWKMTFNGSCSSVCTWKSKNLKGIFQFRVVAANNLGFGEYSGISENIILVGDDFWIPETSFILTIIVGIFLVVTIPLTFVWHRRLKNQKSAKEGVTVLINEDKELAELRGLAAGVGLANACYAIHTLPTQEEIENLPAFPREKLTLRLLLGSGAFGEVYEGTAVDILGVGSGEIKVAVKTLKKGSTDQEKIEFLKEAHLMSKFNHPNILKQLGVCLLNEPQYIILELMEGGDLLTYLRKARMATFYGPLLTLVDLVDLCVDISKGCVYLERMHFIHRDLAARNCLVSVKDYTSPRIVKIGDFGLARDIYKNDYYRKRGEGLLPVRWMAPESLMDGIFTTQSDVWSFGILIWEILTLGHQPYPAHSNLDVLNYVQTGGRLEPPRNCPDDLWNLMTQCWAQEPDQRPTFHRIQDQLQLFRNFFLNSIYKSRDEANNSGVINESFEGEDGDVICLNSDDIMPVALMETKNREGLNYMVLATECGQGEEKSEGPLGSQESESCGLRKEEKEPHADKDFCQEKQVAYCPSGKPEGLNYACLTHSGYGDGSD
In short: as §1

[4] = target: T4, scanMAX Kinase assay panel (Homo sapiens, UniProt Q9UBE8); conditions: NLK; 1 uM; read-out: Percent Control (%)
T4 construct: purchased DiscoverX
T4 sequence (Q9UBE8 1-527): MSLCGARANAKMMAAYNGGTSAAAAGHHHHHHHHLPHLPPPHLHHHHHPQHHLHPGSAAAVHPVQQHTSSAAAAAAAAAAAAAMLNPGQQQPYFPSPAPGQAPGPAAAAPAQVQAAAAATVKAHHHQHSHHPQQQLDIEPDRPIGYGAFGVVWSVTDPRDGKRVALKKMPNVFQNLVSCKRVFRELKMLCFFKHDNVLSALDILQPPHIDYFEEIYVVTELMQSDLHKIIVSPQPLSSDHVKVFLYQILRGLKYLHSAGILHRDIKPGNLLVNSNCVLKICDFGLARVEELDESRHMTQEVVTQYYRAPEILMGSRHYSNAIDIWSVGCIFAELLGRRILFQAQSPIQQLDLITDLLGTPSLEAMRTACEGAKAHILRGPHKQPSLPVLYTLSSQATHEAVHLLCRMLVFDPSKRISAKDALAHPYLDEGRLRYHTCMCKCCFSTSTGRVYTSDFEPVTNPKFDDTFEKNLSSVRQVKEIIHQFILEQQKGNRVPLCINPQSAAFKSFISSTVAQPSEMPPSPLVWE
In short: as §1

[5] = target: T5, scanMAX Kinase assay panel (Homo sapiens, UniProt P07333); conditions: 1 uM, read-out: Percent Control (%)
T5 construct: purchased DiscoverX
In short: as §1

[6] = target: T6, scanMAX Kinase assay panel (Homo sapiens, UniProt Q02750); conditions: MEK1; 1 uM; read-out: Percent Control (%)
T6 construct: purchased DiscoverX
T6 sequence (Q02750 whole entry): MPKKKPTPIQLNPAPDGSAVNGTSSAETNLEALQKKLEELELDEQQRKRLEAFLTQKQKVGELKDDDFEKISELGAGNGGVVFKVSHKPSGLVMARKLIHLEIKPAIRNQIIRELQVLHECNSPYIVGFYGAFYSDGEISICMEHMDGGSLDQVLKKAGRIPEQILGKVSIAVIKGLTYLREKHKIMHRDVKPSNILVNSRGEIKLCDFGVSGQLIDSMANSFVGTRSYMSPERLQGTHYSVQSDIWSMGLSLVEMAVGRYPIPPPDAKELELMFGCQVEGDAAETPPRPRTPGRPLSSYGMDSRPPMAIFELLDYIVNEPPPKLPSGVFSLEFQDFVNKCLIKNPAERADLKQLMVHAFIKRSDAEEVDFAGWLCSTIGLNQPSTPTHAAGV
In short: as §1

[7] = target: T7, scanMAX Kinase assay panel (Homo sapiens, UniProt Q13188); conditions: MST2; 1 uM; read-out: Percent Control (%)
T7 construct: purchased DiscoverX
T7 sequence (Q13188 1-491): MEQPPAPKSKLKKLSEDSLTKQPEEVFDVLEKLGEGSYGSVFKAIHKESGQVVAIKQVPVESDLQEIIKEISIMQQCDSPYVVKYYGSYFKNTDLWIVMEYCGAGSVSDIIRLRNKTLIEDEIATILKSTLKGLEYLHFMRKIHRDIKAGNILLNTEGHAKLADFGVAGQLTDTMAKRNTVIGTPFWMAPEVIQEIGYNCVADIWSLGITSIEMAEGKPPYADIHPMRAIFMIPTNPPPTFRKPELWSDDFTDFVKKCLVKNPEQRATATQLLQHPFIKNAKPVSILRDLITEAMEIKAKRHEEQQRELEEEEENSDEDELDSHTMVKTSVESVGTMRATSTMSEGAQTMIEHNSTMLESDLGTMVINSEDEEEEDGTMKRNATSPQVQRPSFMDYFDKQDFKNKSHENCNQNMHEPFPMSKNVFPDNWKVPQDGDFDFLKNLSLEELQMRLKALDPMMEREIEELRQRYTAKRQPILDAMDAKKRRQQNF
In short: as §1

[8] = target: T8, scanMAX Kinase assay panel (Homo sapiens, UniProt Q9H0K1); conditions: SIK2; 1 uM; read-out: Percent Control (%)
T8 construct: purchased DiscoverX
In short: as §1

[9] = target: T9, scanMAX Kinase assay panel (Homo sapiens, UniProt Q6PHR2); conditions: ULK3; 1 uM; read-out: Percent Control (%)
T9 construct: purchased DiscoverX
T9 sequence (Q6PHR2 1-472): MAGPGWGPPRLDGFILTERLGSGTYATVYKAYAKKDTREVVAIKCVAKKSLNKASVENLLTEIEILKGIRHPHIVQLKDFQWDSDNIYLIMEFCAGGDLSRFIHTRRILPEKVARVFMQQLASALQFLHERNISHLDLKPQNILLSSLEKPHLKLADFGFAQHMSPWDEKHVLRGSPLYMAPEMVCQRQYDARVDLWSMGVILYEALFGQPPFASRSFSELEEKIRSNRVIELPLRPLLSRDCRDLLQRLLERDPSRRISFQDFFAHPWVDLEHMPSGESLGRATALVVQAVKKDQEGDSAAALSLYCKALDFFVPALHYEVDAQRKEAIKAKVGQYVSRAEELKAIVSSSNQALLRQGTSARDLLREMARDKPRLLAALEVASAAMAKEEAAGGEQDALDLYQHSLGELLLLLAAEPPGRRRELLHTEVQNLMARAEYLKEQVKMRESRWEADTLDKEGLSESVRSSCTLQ
In short: as §1

[10] = target: T10, scanMAX Kinase assay panel (Homo sapiens, UniProt P51812); conditions: 1 uM, read-out: Percent Control (%)
T10 construct: purchased DiscoverX
T10 sequence (P51812 whole entry): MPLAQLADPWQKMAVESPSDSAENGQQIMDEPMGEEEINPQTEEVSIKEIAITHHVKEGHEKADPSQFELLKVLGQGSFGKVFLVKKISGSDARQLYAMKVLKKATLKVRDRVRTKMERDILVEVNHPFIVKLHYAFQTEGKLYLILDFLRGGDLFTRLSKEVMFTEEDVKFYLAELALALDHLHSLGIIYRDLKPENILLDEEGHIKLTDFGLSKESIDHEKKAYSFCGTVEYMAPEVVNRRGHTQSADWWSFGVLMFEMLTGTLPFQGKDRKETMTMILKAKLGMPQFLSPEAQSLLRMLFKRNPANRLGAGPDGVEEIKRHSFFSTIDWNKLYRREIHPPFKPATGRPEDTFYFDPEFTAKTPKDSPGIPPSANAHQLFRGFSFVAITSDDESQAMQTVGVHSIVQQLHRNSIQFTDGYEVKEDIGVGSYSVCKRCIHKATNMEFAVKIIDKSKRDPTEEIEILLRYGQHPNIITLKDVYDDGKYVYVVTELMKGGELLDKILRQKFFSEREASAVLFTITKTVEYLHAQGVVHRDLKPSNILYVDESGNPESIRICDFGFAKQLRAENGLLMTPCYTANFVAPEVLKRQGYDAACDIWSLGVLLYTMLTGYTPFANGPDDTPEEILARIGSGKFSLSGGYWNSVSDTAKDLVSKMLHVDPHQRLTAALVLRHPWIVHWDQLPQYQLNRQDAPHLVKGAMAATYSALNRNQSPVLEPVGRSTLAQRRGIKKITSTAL
In short: as §1

[11] = target: T11, scanMAX Kinase assay panel (Homo sapiens, UniProt P11362); conditions: FGFR1; 1 uM; read-out: Percent Control (%)
T11 construct: purchased DiscoverX
T11 sequence (P11362 22-822): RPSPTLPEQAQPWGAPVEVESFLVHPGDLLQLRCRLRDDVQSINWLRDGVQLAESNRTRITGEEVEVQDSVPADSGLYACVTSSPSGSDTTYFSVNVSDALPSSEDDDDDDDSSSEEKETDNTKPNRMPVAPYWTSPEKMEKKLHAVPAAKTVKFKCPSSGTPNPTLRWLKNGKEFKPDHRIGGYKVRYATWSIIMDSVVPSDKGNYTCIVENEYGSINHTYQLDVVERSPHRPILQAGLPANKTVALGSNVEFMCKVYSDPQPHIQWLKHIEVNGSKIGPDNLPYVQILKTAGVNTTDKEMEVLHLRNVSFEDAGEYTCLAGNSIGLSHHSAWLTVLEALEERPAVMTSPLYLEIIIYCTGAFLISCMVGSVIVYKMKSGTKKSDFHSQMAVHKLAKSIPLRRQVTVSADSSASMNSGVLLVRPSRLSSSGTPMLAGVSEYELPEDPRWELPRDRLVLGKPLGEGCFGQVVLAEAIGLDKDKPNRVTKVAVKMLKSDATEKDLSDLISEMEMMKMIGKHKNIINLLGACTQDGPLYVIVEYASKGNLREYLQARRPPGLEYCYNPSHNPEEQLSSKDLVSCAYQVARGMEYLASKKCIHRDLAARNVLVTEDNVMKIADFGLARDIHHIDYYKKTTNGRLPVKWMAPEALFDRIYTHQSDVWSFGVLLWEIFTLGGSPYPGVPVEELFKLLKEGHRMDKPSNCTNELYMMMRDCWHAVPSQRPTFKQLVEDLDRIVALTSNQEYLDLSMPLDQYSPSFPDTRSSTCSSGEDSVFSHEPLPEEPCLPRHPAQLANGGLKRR
In short: as §1

T1 sequence (P19784 whole entry): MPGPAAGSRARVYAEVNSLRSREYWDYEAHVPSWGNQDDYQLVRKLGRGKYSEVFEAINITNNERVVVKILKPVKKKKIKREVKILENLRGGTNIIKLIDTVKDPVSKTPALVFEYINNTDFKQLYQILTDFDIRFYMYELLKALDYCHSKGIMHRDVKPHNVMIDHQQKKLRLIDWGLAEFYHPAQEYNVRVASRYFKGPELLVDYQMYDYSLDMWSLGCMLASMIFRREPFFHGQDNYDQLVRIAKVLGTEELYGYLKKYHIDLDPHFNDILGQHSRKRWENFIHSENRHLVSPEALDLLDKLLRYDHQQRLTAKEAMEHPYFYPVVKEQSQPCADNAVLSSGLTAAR

Compound	remaining binding at 1 µM [1] [%]	remaining binding at 1 µM [2] [%]	remaining binding at 1 µM [3] [%]	remaining binding at 1 µM [4] [%]	remaining binding at 1 µM ([5]; CSF1R-autoinhibited) [%]	remaining binding at 1 µM ([5]; CSF1R) [%]	remaining binding at 1 µM [6] [%]	remaining binding at 1 µM [7] [%]	remaining binding at 1 µM [8] [%]	remaining binding at 1 µM [9] [%]	remaining binding at 1 µM ([10]; RSK2 (Kin.Dom.1-N-terminal)) [%]	remaining binding at 1 µM ([10]; RSK2 (Kin.Dom.2-C-terminal)) [%]	remaining binding at 1 µM [11] [%]
Cc1ccc(C(=O)Nc2ccc(CN3CCN(C)CC3)c(C(F)(F)F)c2)cc1C#Cc1cnc2c(Nc3cnn(C)c3)cccn12 [Example 1, 4-methyl-3-((8-((1-methyl-1H-pyrazol-4-yl)amino)imidazo[1,2-a]pyridin-3-yl)ethynyl)-N-(4-((4-methylpiperazin-1-yl)methyl)-3-(trifluoromethyl)phenyl)benzamide]	56	0	39	24	74	0	100	5	44	1	35	93	0
Cc1cn(-c2cc(NC(=O)c3ccc(C)c(C#Cc4cnc5c(Nc6cnn(C)c6)cccn45)c3)cc(C(F)(F)F)c2)cn1 [Example 12, 4-methyl-N-(3-(4-methyl-1H-imidazol-1-yl)-5-(trifluoromethyl)phenyl)-3-((8-((1-methyl-1H-pyrazol-4-yl)amino)imidazo[1,2-a]pyridin-3-yl)ethynyl)benzamide]	98	0	51	15	100	0	100	100	58	91	100	94	6
Cc1ccc(NC(=O)C2(C(=O)Nc3ccc(F)cc3)CC2)cc1C#Cc1cnc2c(Nc3cnn(C(C)C)c3)cccn12 [Example 78]	100	40	92	50	91	2	100	85	53	100	99	81	100

Reference: patent US10870647B2, “Imidazopyridine derivative, method for preparing same, and pharmaceutical composition containing same as active ingredient for preventing or treating cancer” (DAEGU-GYEONGBUK MEDICAL INNOVATION FOUNDATION, priority 2016, dated 2020)
